Read-outs that look alike come from different tables or passages of the source.
How the values were obtained:
[1] = biological target: T1, HBV core protein (Hepatitis B virus genotype D subtype ayw, UniProt P03146); test: Cellular HBV core high-content imaging assay (cytosolic and nuclear aggregated core / core speckling); type: cell-based; conditions: HepG2.117 cells; for dose-dependent cytoplasmic and nuclear core speckling phenotype / Cytosolic aggregated core Median max effect at 25 μM (Range) / Nuclear aggregated core Median max effect at 25 μM (Range) / EC50: 72 h; for dose-dependent cytoplasmic and nuclear core speckling phenotype: 11 concentrations, robustness test; for Cytosolic aggregated core Median max effect at 25 μM (Range) / Nuclear aggregated core Median max effect at 25 μM (Range): normalized to 1 μM GLS-4 high control (100% effect); for EC50: median over inter-/intra-assay plate groups
T1 construct: withdrawal of doxycycline from the cell culture medium which results in expression of core and polymerase HBV proteins; expressed in transfected cells; host or cells: HepG2.117 (human hepatoma-derived, stably transfected with the HBV genome, Tet-off)
T1 sequence (P03146 whole entry): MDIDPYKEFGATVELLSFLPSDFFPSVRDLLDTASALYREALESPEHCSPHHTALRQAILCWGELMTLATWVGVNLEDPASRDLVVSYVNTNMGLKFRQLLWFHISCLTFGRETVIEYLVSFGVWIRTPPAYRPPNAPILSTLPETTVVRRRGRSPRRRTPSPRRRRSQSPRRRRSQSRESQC
Protocol: After trypsinization, HepG2.117 cells were washed once with phosphate buffered saline (PBS). Cells were centrifuged at 1,500 rpm for 5 minutes and divided in two fractions. The fraction that was used for the core-suppressed HepG2.117 cell controls (background control, BC) was resuspended in DMEM supplemented with 2% Tet-system-approved fetal calf serum (FCS; Clontech), 2 mM alanyl-glutamine, lx non-essential amino acids (NEAA; Sigma-Aldrich), and 100 ng/ml doxycycline to suppress core expression. The other fraction was resuspended in DMEM supplemented with 2% Tet-system-approved FCS, 2 mM alanyl-glutamine, and 1×NEAA and used for sample wells, the core-expressing low control wells (LC) and aggregated core-expressing high control wells (HC). 2,000 cells per well were seeded for the assay validation, while 1,500 cells per well were seeded in the cellular screening campaign. Test compound-containing 384-well black poly-D-lysine CellCarrier tissue culture treated plates with an optically clear bottom (Perkin Elmer, Waltham, Mass.) were used. Test compounds were used in dose range in the presence of 1% dimethyl sulfoxide (DMSO). Aggregated core expressing high control wells were treated with 1 μM GLS-4. Compound plates with seeded cells were incubated for 72 h at 37° C. and 5% CO2.
After about 72 hours, cells were fixed with 5% ultra-pure methanol-free formaldehyde (Polysciences, Warrington, Pa.) for 15 minutes and washed three times with PBS. Next, cells were permeabilized for 30 minutes using 0.5% Triton-X-100 (Sigma-Aldrich) dissolved in PBS and washed again three times with PBS. Cells were incubated for 1 hour with PBS containing 5% bovine serum albumin to block Fc receptors. Core protein was detected with primary monoclonal mouse core antibody at a concentration of 666 ng/ml or polyclonal rabbit core antibody at a concentration of 65 μg/ml in PBS containing 5% bovine serum albumin (Sigma-Aldrich). After overnight incubation at 4° C., cells were washed three times with PBS and primary antibody was detected with 2 μg/ml Alexa Fluor-488 goat anti-mouse or goat anti-rabbit secondary antibody. Nuclei and cytoplasm were co-stained using 2 μg/ml Hoechst 33258 (nuclei) and 500 ng/ml HCS CellMask™ Deep Red (entire cells) solution. After 1 hour of incubation at room temperature, cells were washed three times with PBS.
The Opera Phenix™ high-content screening system (Perkin Elmer) was used for automated imaging. A 405-nm laser with 100% power was used with an exposure time of 200 ms to excite Hoechst 33258 (emitting its fluorescent light at 461-nm); emission light was captured using a 435/480 nm emission filter. Simultaneously, HCS CellMask™ Deep Red signal (emitting its fluorescent light at 655-nm) was excited by a 635-nm laser with a 25 ms exposure time and a laser power reduced to 25%; red emitted light was captured using an emission filter of 650/760 nm. Alexa Fluor 488 fluorophores were excited using a 488-nm laser with 100% power and an exposure of 200 ms, whereby the emission filter 500/550 nm was chosen. This detection was performed independently from Hoechst and HCS CellMask™ Deep Red as the fluorescence spectrum of Hoechst overlaps with that of Alexa Fluor-488. A 20× water immersion objective with a numerical aperture of 1.0 was used for imaging of four fields per well.
Images were analyzed with a custom Acapella (Perkin Elmer) script. Nuclei identification was based on the Hoechst 33258 channel, cytoplasm segmentation was based on the HCS CellMask™ Deep Red channel and core protein intensity and texture features were calculated using the Alexa Fluor 488 channel. The cell count feature was used as a measure for cytotoxicity. […] The texture feature “SERSpot” at scale 1.0 was calculated in the nuclear and cytoplasm region of each cell to quantify aggregated core and averaged across all cells on the well-level.

[2] = biological target: T2, intracellular capsids (HBV core protein) (Hepatitis B virus genotype D subtype ayw, UniProt P03146); test: Capsid depletion assay: native polyacrylamide gel electrophoresis with immunoblotting for detection of capsids; type: cell-based; conditions: HepG2.117 cells treated for 3 days, native PAGE/western blot
T2 construct: withdrawal of doxycycline from the cell culture medium which results in expression of core and polymerase HBV proteins; expressed in transfected cells; host or cells: HepG2.117 (human hepatoma-derived, stably transfected with the HBV genome, Tet-off)
T2 sequence (P03146 whole entry): as above
Protocol: HepG2.117 cells cultured in 2% serum containing assay medium as described above were plated in a 12-well plate at a cell density of 500,000 cells/well and incubated at 37° C. and 5% CO2. After overnight incubation, cells were treated with test compound or DMSO for 72 hours at 37° C. and 5% CO2. Afterwards, cells were washed once with PBS and lysed with 300 μl 10 mM Tris-HCl (pH 7.6), 100 mM NaCl, 1 mM ethylenediaminetetraacetic acid (EDTA), and 0.1% NP-40 supplemented with 1× Halt™ Protease Inhibitor Cocktail (Thermo Fisher Scientific, Waltham, Mass.). After lysis of the cells at 37° C. for 10 minutes, cell debris was discarded by centrifugation at 5,000×g for 10 minutes. Supernatant was collected and protein concentration was determined using the DC (detergent compatible) protein assay (Bio-Rad, Hercules, Calif.). Of protein/sample, 2.2 μg was loaded on a NativePAGE™ Novex® 3-12% Bis-Tris Gel (Invitrogen, Waltham, Mass.) with electrophoresis performed at room temperature using NativePAGE™ Running Buffer and NativePAGE™ Cathode Additive. Proteins were transferred using the Novex® iBlot® Transfer Stack, PVDF, regular size kit followed by a standard immunoblotting procedure using primary polyclonal rabbit core antibody at a concentration of 16.25 μg/ml with overnight incubation. […]

| SMILES | dose-dependent cytoplasmic and nuclear core speckling phenotype [1] | Cytosolic aggregated core Median max effect at 25 μM (Range) [1] | Nuclear aggregated core Median max effect at 25 μM (Range) [1] | phenotypic core immunostaining pattern ([1]; core expressing (-DOX), FIG. 2A/2B) | depletion of intracellular capsids [2] | EC50 ([1]; read-out: Cytosolic aggregated core Median EC50 (μM) (Range)) [µM] | EC50 ([1]; read-out: Nuclear aggregated core Median EC50 (μM) (Range)) [µM] |
| --- | --- | --- | --- | --- | --- | --- | --- |
| COC(=O)C1=C(C)NC(c2ncc(F)cc2F)=N[C@H]1c1ccc(F)cc1Cl [Compound 14] | dose-dependent cytoplasmic and nuclear core speckling phenotype was observed | 68.1 | 139.2 | aggregated dot-like pattern of core proteins | dose-dependent depletion of intracellular capsids | – | – |
| COC(=O)C1=C(CN2CCOCC2)NC(c2ccccn2)=NC1c1ccc(F)cc1Cl (stereo not shown) [Compound 5] | dose-dependent cytoplasmic and nuclear core speckling phenotype was observed | 72.1 | 86.2 | – | – | 0.078 | 0.085 |
